The source of these data is ChEMBL document CHEMBL3875196, “Novel pyrazolo[1,5-a]pyridines with improved aqueous solubility as p110α-selective PI3 kinase inhibitors” (Bioorg Med Chem Lett, 2017).

The nature of assay [1]: Antiproliferative activity against wild type p110alpha expressing human NZB5 cells after 5 days by [3H]-thymidine incorporation assay. Type of assay: functional, cell-based. In general terms: Uptake of a labelled nucleoside into DNA is a usual measure of proliferation.
In assay [2] the target is T1, Phosphatidylinositol 4,5-bisphosphate 3-kinase catalytic subunit delta isoform (Homo sapiens, UniProt O00329).
T1 sequence (O00329 whole entry): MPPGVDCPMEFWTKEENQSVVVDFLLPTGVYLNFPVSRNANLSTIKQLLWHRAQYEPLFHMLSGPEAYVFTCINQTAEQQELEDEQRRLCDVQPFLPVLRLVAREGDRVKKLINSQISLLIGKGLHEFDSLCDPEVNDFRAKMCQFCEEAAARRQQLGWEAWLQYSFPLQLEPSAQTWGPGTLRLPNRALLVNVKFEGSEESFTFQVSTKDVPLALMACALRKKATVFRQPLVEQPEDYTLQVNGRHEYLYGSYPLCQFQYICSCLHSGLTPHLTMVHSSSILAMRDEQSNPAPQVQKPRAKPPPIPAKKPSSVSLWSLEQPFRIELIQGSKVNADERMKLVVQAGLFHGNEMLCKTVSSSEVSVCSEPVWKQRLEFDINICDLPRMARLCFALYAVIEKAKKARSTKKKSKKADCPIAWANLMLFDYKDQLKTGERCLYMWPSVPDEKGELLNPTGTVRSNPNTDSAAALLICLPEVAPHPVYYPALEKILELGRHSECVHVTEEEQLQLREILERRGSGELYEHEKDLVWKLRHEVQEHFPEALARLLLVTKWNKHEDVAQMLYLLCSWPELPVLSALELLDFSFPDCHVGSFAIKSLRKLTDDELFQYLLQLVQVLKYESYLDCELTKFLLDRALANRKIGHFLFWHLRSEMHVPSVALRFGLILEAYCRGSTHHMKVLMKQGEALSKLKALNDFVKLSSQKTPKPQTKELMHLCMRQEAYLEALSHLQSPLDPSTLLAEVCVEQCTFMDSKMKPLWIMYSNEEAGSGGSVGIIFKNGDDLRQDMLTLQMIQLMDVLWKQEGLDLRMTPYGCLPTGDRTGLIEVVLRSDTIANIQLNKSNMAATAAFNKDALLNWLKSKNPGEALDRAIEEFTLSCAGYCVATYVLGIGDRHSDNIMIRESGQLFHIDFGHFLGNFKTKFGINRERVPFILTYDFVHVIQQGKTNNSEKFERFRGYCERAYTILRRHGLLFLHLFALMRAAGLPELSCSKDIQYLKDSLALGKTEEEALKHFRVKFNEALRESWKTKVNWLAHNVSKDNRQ
Nature of the assay: Inhibition of p110delta (unknown origin) using L-alpha phosphatidylinositol as substrate after 1 hr in presence of [gamma33]-ATP by thin layer chromatographic analysis.

The nature of assay [3]: Inhibition of recombinant mouse p110alpha/N-terminal His-tagged human p85alpha expressed in baculovirus infected Sf21 cells using L-alpha-phosphatidylinositol as substrate after 1 hr in presence of [gamma33]-ATP by thin layer chromatographic analysis.
A short description of assay [4]: Antiproliferative activity against wild type p110alpha expressing human NZOV9 cells after 5 days by [3H]-thymidine incorporation assay. Type of assay: functional, cell-based.
Assay [5] addresses PI3K p110 beta/p85 alpha (Homo sapiens, UniProt P42338). The assay can be described thus: Inhibition of recombinant human p110beta/N-terminal His-tagged human p85alpha expressed in baculovirus infected sf cells using L-alpha-phosphatidylinositol as substrate after 1 hr in presence of [gamma33]-ATP by thin layer chromatographic analysis.

pIC50: −log10 of the molar value.

Sequence of PI3K p110 beta/p85 alpha (P27986 whole entry): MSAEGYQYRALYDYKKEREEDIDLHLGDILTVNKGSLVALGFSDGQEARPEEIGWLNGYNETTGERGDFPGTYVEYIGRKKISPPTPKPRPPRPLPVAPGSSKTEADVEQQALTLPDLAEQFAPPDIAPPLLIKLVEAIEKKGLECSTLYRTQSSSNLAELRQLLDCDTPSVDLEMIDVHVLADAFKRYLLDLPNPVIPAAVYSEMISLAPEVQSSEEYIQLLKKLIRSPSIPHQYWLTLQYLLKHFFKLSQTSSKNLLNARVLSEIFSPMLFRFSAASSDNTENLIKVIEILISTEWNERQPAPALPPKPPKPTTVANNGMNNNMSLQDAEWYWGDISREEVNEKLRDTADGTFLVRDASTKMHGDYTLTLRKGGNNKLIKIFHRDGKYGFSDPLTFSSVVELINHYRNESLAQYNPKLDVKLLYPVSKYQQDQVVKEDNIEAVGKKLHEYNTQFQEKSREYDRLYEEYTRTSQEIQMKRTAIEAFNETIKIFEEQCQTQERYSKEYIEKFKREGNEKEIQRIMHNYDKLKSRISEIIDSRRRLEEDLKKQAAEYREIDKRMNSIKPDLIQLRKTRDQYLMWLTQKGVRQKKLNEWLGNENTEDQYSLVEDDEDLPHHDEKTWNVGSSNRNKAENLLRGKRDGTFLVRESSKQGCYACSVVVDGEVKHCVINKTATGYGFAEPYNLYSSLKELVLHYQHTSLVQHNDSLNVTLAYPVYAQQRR
Sequence of PI3K p110 beta/p85 alpha (P42338 whole entry): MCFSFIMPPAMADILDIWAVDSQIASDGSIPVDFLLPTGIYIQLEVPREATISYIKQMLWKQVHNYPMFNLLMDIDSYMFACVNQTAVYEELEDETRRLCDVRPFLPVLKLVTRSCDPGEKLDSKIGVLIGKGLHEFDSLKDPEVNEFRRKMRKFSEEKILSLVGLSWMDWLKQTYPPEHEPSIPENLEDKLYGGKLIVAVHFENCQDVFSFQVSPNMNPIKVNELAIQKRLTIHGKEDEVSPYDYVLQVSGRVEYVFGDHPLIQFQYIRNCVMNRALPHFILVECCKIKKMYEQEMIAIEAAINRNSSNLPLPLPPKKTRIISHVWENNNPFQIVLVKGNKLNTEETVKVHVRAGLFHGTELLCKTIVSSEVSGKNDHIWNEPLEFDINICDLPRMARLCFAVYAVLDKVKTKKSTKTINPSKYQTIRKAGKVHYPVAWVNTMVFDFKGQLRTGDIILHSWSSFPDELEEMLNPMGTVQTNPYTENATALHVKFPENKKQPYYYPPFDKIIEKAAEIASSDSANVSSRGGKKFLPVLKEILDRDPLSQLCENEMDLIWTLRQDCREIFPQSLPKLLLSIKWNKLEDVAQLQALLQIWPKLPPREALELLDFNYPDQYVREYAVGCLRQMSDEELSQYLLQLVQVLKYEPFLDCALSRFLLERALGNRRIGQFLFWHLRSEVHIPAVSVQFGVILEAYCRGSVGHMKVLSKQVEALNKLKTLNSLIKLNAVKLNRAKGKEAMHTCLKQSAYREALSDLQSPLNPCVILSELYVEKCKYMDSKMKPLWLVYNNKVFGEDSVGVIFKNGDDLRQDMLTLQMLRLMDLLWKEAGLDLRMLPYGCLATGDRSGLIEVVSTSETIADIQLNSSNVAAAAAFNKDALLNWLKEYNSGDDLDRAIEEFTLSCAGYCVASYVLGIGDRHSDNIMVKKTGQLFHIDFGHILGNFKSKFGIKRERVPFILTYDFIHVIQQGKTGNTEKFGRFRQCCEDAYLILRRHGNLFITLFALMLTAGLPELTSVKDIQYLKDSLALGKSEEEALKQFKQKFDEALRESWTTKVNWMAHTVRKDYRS

`CN(CCc1cccnc1)c1ccc([N+](=O)[O-])cc1S(=O)(=O)N(C)/N=C/c1cnn2ccc(C#N)cc12`: the pIC50 is above 8.70 in assay [1]; 7.26 in assay [2]; 8.05 in assay [3]; 6.13 in assay [4]; 6.74 in assay [5].
The like results for `CN(/N=C/c1cnn2ccc(C#N)cc12)S(=O)(=O)c1cc([N+](=O)[O-])ccc1OCc1ccccn1` were, in that order, 5.89, 6.02, 8.22, 6.18 and 5.25.
`CN(/N=C/c1cnn2ccc(Br)cc12)S(=O)(=O)c1cc([N+](=O)[O-])ccc1OCCN1CCOCC1`: the pIC50 is 6.57 in assay [1]; 6.46 in assay [2]; 7.29 in assay [3]; 6.26 in assay [4]; 5.54 in assay [5].
Consider `CN(CCCN1CCOCC1)c1ccc([N+](=O)[O-])cc1S(=O)(=O)N(C)/N=C/c1cnn2ccc(Br)cc12`, for which the pIC50 is 7.03 in assay [1], 6.43 in assay [3] and 6.17 in assay [4].
Consider `CN(CCc1ccncc1)c1ccc([N+](=O)[O-])cc1S(=O)(=O)N(C)/N=C/c1cnn2ccc(C#N)cc12`, for which the pIC50 was above 8.70 in assay [1]; 7.21 in assay [2]; 7.77 in assay [3]; 6.60 in assay [4]; 6.80 in assay [5].
For `CN(C)CCN(C)c1ccc(C#N)cc1C(=O)N(C)/N=C/c1cnn2ccc(C#N)cc12`, the results for the pIC50 in assay [1], in assay [3] and in assay [4] were 5.54, 6.20 and 5.21, respectively.
For `CN(C)CCN(C)c1ccc(C#N)cc1S(=O)(=O)N(C)/N=C/c1cnn2ccc(C#N)cc12`, the pIC50 was 7.26 in assay [1]; 6.42 in assay [2]; 7.09 in assay [3]; 7.33 in assay [4]; 5.70 in assay [5].
The like results for `C/C(=N\NS(=O)(=O)c1cc([N+](=O)[O-])ccc1N(C)CCN(C)C)c1cnn2ccc(C#N)cc12` were, in that order, 6.34, 6.17, 7.29, 5.70 and 6.05.
The like results for `CN(CCCN1CCOCC1)c1ccc([N+](=O)[O-])cc1S(=O)(=O)N(C)/N=C/c1cnn2ccc(C#N)cc12` were, in that order, 7.15, 6.77, 7.59, 6.25 and 6.29.
Consider `CN(CCN)c1ccc([N+](=O)[O-])cc1S(=O)(=O)N(C)/N=C/c1cnn2ccc(C#N)cc12`, for which the pIC50 in assay [1] was 7.54; in assay [2], 6.33; in assay [3], 7.30; in assay [4], 7.24; in assay [5] it was below 6.00.
Turning to `C/C(=N\NS(=O)(=O)c1cc([N+](=O)[O-])ccc1N(C)Cc1ccccn1)c1cnn2ccc(C#N)cc12`, the pIC50 in assay [1] is 7.01; in assay [2] it was 7.96; in assay [3], 8.32; in assay [4], 5.49; in assay [5], 6.68.
The like results for `CN(C)CCOc1ccc([N+](=O)[O-])cc1S(=O)(=O)N(C)/N=C/c1cnn2ccc(C#N)cc12` were, in that order, 7.00, below 6.00, 7.12, 6.77 and below 6.00.
As to `C/C(=N\N(C)S(=O)(=O)c1cc([N+](=O)[O-])ccc1N(C)CCCN1CCOCC1)c1cnn2ccc(Br)cc12`, the pIC50 was 5.29 in assay [1], below 6.00 in assay [3] and 5.42 in assay [4].
As to `C/C(=N\N(C)S(=O)(=O)c1cc([N+](=O)[O-])ccc1N(C)CCN(C)C)c1cnn2ccc(Br)cc12`, the pIC50 in assay [1] is 5.46; in assay [2] it was below 6.00; in assay [3], below 6.00; in assay [4] it was 6.03.
Take `C/C(=N\N(C)S(=O)(=O)c1cc([N+](=O)[O-])ccc1N(C)CCCN1CCOCC1)c1cnn2ccc(C#N)cc12`: the pIC50 in assay [1] is 5.48; in assay [3], below 6.00; in assay [4], 5.62.
On to `CN(/N=C/c1cnn2ccc(C#N)cc12)S(=O)(=O)c1cc([N+](=O)[O-])ccc1NCCN1CCOCC1`, for which the pIC50 is 5.03 in assay [1]; 7.57 in assay [2]; 8.05 in assay [3]; below 4.70 in assay [4]; below 6.00 in assay [5].
For the molecule `CN(Cc1ccncc1)c1ccc([N+](=O)[O-])cc1S(=O)(=O)N(C)/N=C/c1cnn2ccc(C#N)cc12`, the pIC50 in assay [1] is 7.36; in assay [2], 6.82; in assay [3], 7.82; in assay [4], 6.32; in assay [5], 6.41.
The like results for `CN(CCc1ccccn1)c1ccc([N+](=O)[O-])cc1S(=O)(=O)N(C)/N=C/c1cnn2ccc(C#N)cc12` were, in that order, 8.30, 7.22, 8.05, 6.39 and 6.39.
In the case of `CN(CCN1CCCCC1)c1ccc([N+](=O)[O-])cc1S(=O)(=O)N(C)/N=C/c1cnn2ccc(C#N)cc12`, the pIC50 in assay [1] was 7.04; in assay [2], 6.35; in assay [3], 7.10; in assay [4] it was 7.31; in assay [5] it was 5.38.
The like results for `CN(Cc1cccnc1)c1ccc([N+](=O)[O-])cc1S(=O)(=O)N(C)/N=C/c1cnn2ccc(C#N)cc12` were, in that order, 6.27, 6.80, 8.24, 6.20 and 6.28.
For `CN(C)CCNc1ccc([N+](=O)[O-])cc1S(=O)(=O)N(C)/N=C/c1cnn2ccc(C#N)cc12`, the pIC50 in assay [1] was 6.12; in assay [2], below 6.00; in assay [3], 6.37; in assay [4] it was 6.19; in assay [5], below 6.00.
On to `C/C(=N\NS(=O)(=O)c1cc([N+](=O)[O-])ccc1N(C)CCCN1CCOCC1)c1cnn2ccc(C#N)cc12`, for which the results for the pIC50 in assay [1], in assay [3] and in assay [4] were 5.62, 6.48 and 5.02, respectively.
With `C/C(=N\NS(=O)(=O)c1cc([N+](=O)[O-])ccc1N(C)CCN(C)C)c1cnn2ccc(Br)cc12`, the pIC50 in assay [1] is 6.38; in assay [2] it was below 6.00; in assay [3], 6.68; in assay [4], 6.38; in assay [5], below 6.00.
In the case of `CN(CCCN1CCOCC1)c1ccc(C#N)cc1S(=O)(=O)N(C)/N=C/c1cnn2ccc(C#N)cc12`, the pIC50 is 7.68 in assay [1]; 6.43 in assay [2]; 6.62 in assay [3]; 6.44 in assay [4]; below 6.00 in assay [5].
Consider `CN(Cc1ccccn1)c1ccc(C#N)cc1S(=O)(=O)N(C)/N=C/c1cnn2ccc(C#N)cc12`, for which the pIC50 in assay [1] was 6.89; in assay [3] it was 7.40; in assay [4] it was 6.02.
In the case of `CN(Cc1ccccn1)c1ccc([N+](=O)[O-])cc1S(=O)(=O)N(C)/N=C/c1cnn2ccc(Br)cc12`, the pIC50 in assay [1] was 7.03; in assay [3], 6.74; in assay [4], 6.24; in assay [5] it was below 6.00.
As to `C/C(=N\N(C)S(=O)(=O)c1cc([N+](=O)[O-])ccc1N(C)Cc1ccccn1)c1cnn2ccc(Br)cc12`, the pIC50 in assay [1] was 5.59; in assay [3], 5.98; in assay [4], 5.52.
Take `CN(C)CCN(C)c1ccc([N+](=O)[O-])cc1S(=O)(=O)N(C)/N=C/c1cnn2ccc(Br)cc12`: the values for the pIC50 in assay [1], in assay [3] and in assay [4] were above 8.70, 6.29 and above 8.70, respectively.
`Cc1ccc([N+](=O)[O-])cc1S(=O)(=O)N(CCO)/N=C/c1cnn2ccc(C#N)cc12`: the values for the pIC50 in assay [3] and in assay [4] were 8.89 and 6.85, respectively.
As to `C/C(=N\NS(=O)(=O)c1cc([N+](=O)[O-])ccc1N(C)CCCN1CCOCC1)c1cnn2ccc(Br)cc12`, the pIC50 in assay [1] was 6.05; in assay [3], 6.35; in assay [4] it was 5.49.

What is called pIC50 is the IC50 on a negative log10 scale, so that one unit is a factor of ten.
